From the supplement of paper PMC10307832

Assays:
Test in all cases: relative viability (nuclei count vs DMSO), 5 days (fraction); higher = more cells survive
[1] = test system: NCI-H1734
How it was run: (§1)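 One day after seeding in 1536-well plates, lung cancer cell lines were dosed by pin tool. Dosing was either single-drug or a fixed anchor-drug dose plus five library-drug doses (not always all listed) in √10 steps. After 5 days, nuclei were stained in one fix-and-stain step and counted on 4× images, and relative viability is the nuclei count of treated wells over that of vehicle wells, given as the median of duplicate plates.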

[2] = test system: NCI-H1755
How it was run: as §1

[3] = test system: NCI-H1355
How it was run: as §1

[4] = test system: NCI-H596
How it was run: as §1

[5] = test system: NCI-H2342
How it was run: as §1

[6] = test system: LK-2
How it was run: as §1

[7] = test system: LCLC-97TM1
How it was run: as §1

[8] = test system: HCC-78
How it was run: as §1

[9] = test system: NCI-H2126
How it was run: as §1

[10] = test system: NCI-H1944
How it was run: as §1

[11] = test system: NCI-H1975
How it was run: as §1

[12] = test system: PC-3 [JPC-3]
How it was run: as §1

[13] = test system: NCI-H2405
How it was run: as §1

[14] = test system: ChaGo-K-1
How it was run: as §1

[15] = test system: NCI-H1648
How it was run: as §1

[16] = test system: NCI-H23
How it was run: as §1

[17] = test system: NCI-H1993
How it was run: as §1

[18] = test system: HOP-62
How it was run: as §1

[19] = test system: NCI-H1650
How it was run: as §1

[20] = test system: NCI-H460
How it was run: as §1

[21] = test system: NCI-H358
How it was run: as §1

[22] = test system: NCI-H2228
How it was run: as §1

[23] = test system: NCI-H727
How it was run: as §1

Molecule `Nc1cccc2c1CN(C1CCC(=O)NC1=O)C2=O` (stereo not drawn) [Lenalidomide] + Nc1nc2[nH]cc(CCc3ccc(C(=O)N[C@@H](CCC(=O)O)C(=O)O)cc3)c2c(=O)[nH]1 [Pemetrexed] (partner 0.2 µM) has a relative viability ([1]; first compound 0.253 µM) of 0.465, a relative viability ([1]; first compound 0.8 µM) of 0.465 and a relative viability ([1]; first compound 2.53 µM) of 0.433. The relative viability ([1]; first compound 8 µM) was 0.479, the relative viability ([2]; first compound 0.253 µM) was 0.441 and the relative viability ([2]; first compound 0.8 µM) was 0.452. For the same molecule, the relative viability ([2]; first compound 2.53 µM) was 0.691, the relative viability ([2]; first compound 8 µM) was 0.448 and the relative viability ([3]; first compound 0.253 µM) was 1.08. The relative viability ([3]; first compound 0.8 µM) was 0.784, the relative viability ([3]; first compound 2.53 µM) was 1.13 and the relative viability ([3]; first compound 8 µM) was 0.738. It also gave a relative viability ([4]; first compound 0.253 µM) of 0.519, a relative viability ([4]; first compound 0.8 µM) of 0.4 and a relative viability ([4]; first compound 2.53 µM) of 0.538. For the same molecule, the relative viability ([4]; first compound 8 µM) was 0.48, the relative viability ([5]; first compound 0.253 µM) was 0.868 and the relative viability ([5]; first compound 0.8 µM) was 0.774. For the same molecule, the relative viability ([5]; first compound 2.53 µM) was 0.771, the relative viability ([5]; first compound 8 µM) was 0.577 and the relative viability ([6]; first compound 0.253 µM) was 0.301. The relative viability ([6]; first compound 0.8 µM) was 0.167, the relative viability ([6]; first compound 2.53 µM) was 0.227 and the relative viability ([6]; first compound 8 µM) was 0.175. It also gave a relative viability ([7]; first compound 0.253 µM) of 0.175, a relative viability ([7]; first compound 0.8 µM) of 0.151 and a relative viability ([7]; first compound 2.53 µM) of 0.18. The relative viability ([7]; first compound 8 µM) was 0.2, the relative viability ([8]; first compound 0.253 µM) was 0.878 and the relative viability ([8]; first compound 0.8 µM) was 0.936. For the same molecule, the relative viability ([8]; first compound 2.53 µM) was 0.886, the relative viability ([8]; first compound 8 µM) was 0.937 and the relative viability ([9]; first compound 0.253 µM) was 0.655. The relative viability ([9]; first compound 0.8 µM) was 0.679, the relative viability ([9]; first compound 2.53 µM) was 0.75 and the relative viability ([9]; first compound 8 µM) was 0.634. It also gave a relative viability ([10]; first compound 0.253 µM) of 0.642, a relative viability ([10]; first compound 2.53 µM) of 0.691 and a relative viability ([10]; first compound 8 µM) of 0.553. The relative viability ([11]; first compound 0.253 µM) was 0.29, the relative viability ([11]; first compound 0.8 µM) was 0.303 and the relative viability ([11]; first compound 2.53 µM) was 0.322. For the same molecule, the relative viability ([11]; first compound 8 µM) was 0.332, the relative viability ([12]; first compound 0.253 µM) was 1.2 and the relative viability ([12]; first compound 0.8 µM) was 0.755. It also gave a relative viability ([12]; first compound 2.53 µM) of 1.21, a relative viability ([12]; first compound 8 µM) of 1.08 and a relative viability ([13]; first compound 0.253 µM) of 0.999. For the same molecule, the relative viability ([13]; first compound 0.8 µM) was 0.988, the relative viability ([13]; first compound 2.53 µM) was 1.08 and the relative viability ([13]; first compound 8 µM) was 0.94. It also gave a relative viability ([14]; first compound 0.253 µM) of 0.256, a relative viability ([14]; first compound 0.8 µM) of 0.255 and a relative viability ([14]; first compound 2.53 µM) of 0.274. For the same molecule, the relative viability ([14]; first compound 8 µM) was 0.26, the relative viability ([15]; first compound 0.253 µM) was 0.765 and the relative viability ([15]; first compound 2.53 µM) was 0.711. For the same molecule, the relative viability ([15]; first compound 8 µM) was 0.747, the relative viability ([16]; first compound 0.253 µM) was 0.589 and the relative viability ([16]; first compound 2.53 µM) was 0.861. The relative viability ([16]; first compound 8 µM) was 0.694, the relative viability ([17]; first compound 0.253 µM) was 0.554 and the relative viability ([17]; first compound 0.8 µM) was 0.561. It also gave a relative viability ([17]; first compound 2.53 µM) of 0.63, a relative viability ([17]; first compound 8 µM) of 0.452 and a relative viability ([18]; first compound 0.253 µM) of 0.356. For the same molecule, the relative viability ([18]; first compound 0.8 µM) was 0.376, the relative viability ([18]; first compound 2.53 µM) was 0.287 and the relative viability ([18]; first compound 8 µM) was 0.381. For the same molecule, the relative viability ([19]; first compound 0.253 µM) was 0.357, the relative viability ([19]; first compound 0.8 µM) was 0.357 and the relative viability ([19]; first compound 2.53 µM) was 0.366. The relative viability ([19]; first compound 8 µM) was 0.53, the relative viability ([20]; first compound 0.253 µM) was 0.0811 and the relative viability ([20]; first compound 0.8 µM) was 0.068. For the same molecule, the relative viability ([20]; first compound 2.53 µM) was 0.0659, the relative viability ([20]; first compound 8 µM) was 0.0603 and the relative viability ([21]; first compound 0.8 µM) was 0.197. For the same molecule, the relative viability ([21]; first compound 2.53 µM) was 0.182, the relative viability ([21]; first compound 8 µM) was 0.179 and the relative viability ([22]; first compound 0.253 µM) was 0.345. For the same molecule, the relative viability ([22]; first compound 0.8 µM) was 0.345, the relative viability ([22]; first compound 2.53 µM) was 0.358 and the relative viability ([22]; first compound 8 µM) was 0.358.

`Nc1cccc2c1CN(C1CCC(=O)NC1=O)C2=O` (stereo not drawn) [Lenalidomide] + CC(=O)c1c(C)c2cnc(Nc3ccc(N4CCNCC4)cn3)nc2n(C2CCCC2)c1=O [Palbociclib] (partner 0.5 µM) showed a relative viability ([1]; first compound 0.253 µM) of 0.348, a relative viability ([1]; first compound 0.8 µM) of 0.392 and a relative viability ([1]; first compound 2.53 µM) of 0.364. For the same molecule, the relative viability ([1]; first compound 8 µM) was 0.291, the relative viability ([2]; first compound 0.253 µM) was 0.451 and the relative viability ([2]; first compound 0.8 µM) was 0.434. For the same molecule, the relative viability ([2]; first compound 2.53 µM) was 0.429, the relative viability ([2]; first compound 8 µM) was 0.441 and the relative viability ([3]; first compound 0.253 µM) was 0.397. The relative viability ([3]; first compound 0.8 µM) was 0.372, the relative viability ([3]; first compound 2.53 µM) was 0.413 and the relative viability ([3]; first compound 8 µM) was 0.286. It also gave a relative viability ([5]; first compound 0.253 µM) of 0.551, a relative viability ([5]; first compound 0.8 µM) of 0.53 and a relative viability ([5]; first compound 2.53 µM) of 0.502. It also gave a relative viability ([5]; first compound 8 µM) of 0.476, a relative viability ([6]; first compound 0.253 µM) of 0.575 and a relative viability ([6]; first compound 0.8 µM) of 0.734. For the same molecule, the relative viability ([6]; first compound 2.53 µM) was 0.845, the relative viability ([6]; first compound 8 µM) was 0.649 and the relative viability ([7]; first compound 0.253 µM) was 0.229. The relative viability ([7]; first compound 0.8 µM) was 0.185, the relative viability ([7]; first compound 2.53 µM) was 0.209 and the relative viability ([7]; first compound 8 µM) was 0.212. For the same molecule, the relative viability ([8]; first compound 0.253 µM) was 0.48, the relative viability ([8]; first compound 0.8 µM) was 0.416 and the relative viability ([8]; first compound 2.53 µM) was 0.463. The relative viability ([8]; first compound 8 µM) was 0.47, the relative viability ([9]; first compound 0.253 µM) was 0.359 and the relative viability ([9]; first compound 0.8 µM) was 0.383. For the same molecule, the relative viability ([9]; first compound 2.53 µM) was 0.328, the relative viability ([9]; first compound 8 µM) was 0.332 and the relative viability ([10]; first compound 0.253 µM) was 0.364. It also gave a relative viability ([10]; first compound 2.53 µM) of 0.342, a relative viability ([10]; first compound 8 µM) of 0.27 and a relative viability ([11]; first compound 0.253 µM) of 0.591. It also gave a relative viability ([11]; first compound 0.8 µM) of 0.312, a relative viability ([11]; first compound 2.53 µM) of 0.711 and a relative viability ([11]; first compound 8 µM) of 0.399. The relative viability ([12]; first compound 0.253 µM) was 0.545, the relative viability ([12]; first compound 0.8 µM) was 0.511 and the relative viability ([12]; first compound 2.53 µM) was 0.548. For the same molecule, the relative viability ([12]; first compound 8 µM) was 0.57, the relative viability ([13]; first compound 0.253 µM) was 0.513 and the relative viability ([13]; first compound 0.8 µM) was 0.529. The relative viability ([13]; first compound 2.53 µM) was 0.524, the relative viability ([13]; first compound 8 µM) was 0.45 and the relative viability ([23]; first compound 0.253 µM) was 0.697. The relative viability ([23]; first compound 0.8 µM) was 0.684, the relative viability ([23]; first compound 2.53 µM) was 0.64 and the relative viability ([23]; first compound 8 µM) was 0.631. The relative viability ([14]; first compound 0.253 µM) was 0.946, the relative viability ([14]; first compound 0.8 µM) was 0.978 and the relative viability ([14]; first compound 2.53 µM) was 1.01. It also gave a relative viability ([14]; first compound 8 µM) of 0.971, a relative viability ([15]; first compound 0.253 µM) of 0.304 and a relative viability ([15]; first compound 2.53 µM) of 0.282. For the same molecule, the relative viability ([15]; first compound 8 µM) was 0.253, the relative viability ([16]; first compound 0.253 µM) was 0.534 and the relative viability ([16]; first compound 2.53 µM) was 0.517. The relative viability ([16]; first compound 8 µM) was 0.442, the relative viability ([17]; first compound 0.253 µM) was 0.789 and the relative viability ([17]; first compound 0.8 µM) was 0.659. The relative viability ([17]; first compound 2.53 µM) was 0.729, the relative viability ([17]; first compound 8 µM) was 0.455 and the relative viability ([18]; first compound 0.253 µM) was 0.45. The relative viability ([18]; first compound 0.8 µM) was 0.41, the relative viability ([18]; first compound 2.53 µM) was 0.455 and the relative viability ([18]; first compound 8 µM) was 0.378. It also gave a relative viability ([19]; first compound 0.253 µM) of 0.339, a relative viability ([19]; first compound 0.8 µM) of 0.279 and a relative viability ([19]; first compound 2.53 µM) of 0.343. For the same molecule, the relative viability ([19]; first compound 8 µM) was 0.453, the relative viability ([20]; first compound 0.253 µM) was 0.179 and the relative viability ([20]; first compound 0.8 µM) was 0.0987. For the same molecule, the relative viability ([20]; first compound 2.53 µM) was 0.197, the relative viability ([20]; first compound 8 µM) was 0.142 and the relative viability ([21]; first compound 0.8 µM) was 0.139. The relative viability ([21]; first compound 2.53 µM) was 0.142, the relative viability ([21]; first compound 8 µM) was 0.132 and the relative viability ([22]; first compound 0.253 µM) was 1.05. It also gave a relative viability ([22]; first compound 0.8 µM) of 0.36, a relative viability ([22]; first compound 2.53 µM) of 1.04 and a relative viability ([22]; first compound 8 µM) of 0.657.
